Reference: US5962314A, “Calcium receptor-active molecules” (priority 1997, dated 1999)
“Also recorded” adds a separate entry of the source. Like-named read-outs stand apart in the source and are kept apart here. Blank lines part the entries; values can stand above or below the molecule they belong to.

Columns and labels:
Format in all cases: cell-based
[1] = biological target: T1, bovine parathyroid cell calcium receptor (Bos taurus, UniProt P35384); assay: Cl- current in Xenopus oocytes expressing BoPCaR 1; conditions: for effect on inward currents: EGTA 100 μM, 9AC, A23187
T1 construct: expressed in transfected cells; host or cells: Xenopus laevis oocytes injected with BoPCaR 1 cRNA
T1 sequence (P35384 20-1085): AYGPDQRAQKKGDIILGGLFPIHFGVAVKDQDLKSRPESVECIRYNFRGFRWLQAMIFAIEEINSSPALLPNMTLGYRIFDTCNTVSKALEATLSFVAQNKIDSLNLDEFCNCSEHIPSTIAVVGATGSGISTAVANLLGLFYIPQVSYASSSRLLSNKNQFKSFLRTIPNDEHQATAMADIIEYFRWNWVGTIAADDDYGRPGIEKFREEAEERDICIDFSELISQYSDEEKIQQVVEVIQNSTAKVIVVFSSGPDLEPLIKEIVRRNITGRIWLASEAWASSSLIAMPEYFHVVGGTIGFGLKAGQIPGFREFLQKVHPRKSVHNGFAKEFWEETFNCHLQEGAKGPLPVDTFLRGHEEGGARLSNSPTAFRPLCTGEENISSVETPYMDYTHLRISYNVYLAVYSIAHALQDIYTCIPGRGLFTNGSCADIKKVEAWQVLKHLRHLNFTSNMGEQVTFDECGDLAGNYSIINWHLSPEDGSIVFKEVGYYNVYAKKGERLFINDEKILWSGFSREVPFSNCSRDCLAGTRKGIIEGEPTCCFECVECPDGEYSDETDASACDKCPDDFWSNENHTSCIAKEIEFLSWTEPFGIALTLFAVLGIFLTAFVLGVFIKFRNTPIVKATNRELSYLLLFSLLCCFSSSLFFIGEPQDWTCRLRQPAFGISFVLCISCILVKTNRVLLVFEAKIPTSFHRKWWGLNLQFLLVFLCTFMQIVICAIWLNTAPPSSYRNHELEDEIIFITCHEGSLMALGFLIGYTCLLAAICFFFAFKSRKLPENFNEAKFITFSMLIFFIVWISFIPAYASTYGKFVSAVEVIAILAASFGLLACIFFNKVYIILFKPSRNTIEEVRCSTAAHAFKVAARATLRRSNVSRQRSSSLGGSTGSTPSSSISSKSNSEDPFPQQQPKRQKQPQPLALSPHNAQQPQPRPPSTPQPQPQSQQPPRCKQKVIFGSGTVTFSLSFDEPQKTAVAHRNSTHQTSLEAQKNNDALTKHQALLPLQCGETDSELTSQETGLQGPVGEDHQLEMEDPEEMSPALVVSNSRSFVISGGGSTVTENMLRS
Experimental: Several pharmacological and biochemical criteria were used to identify this clone as encoding a bona fide bovine parathyroid Ca^2+ receptor. […] These responses increased markedly over a period of one to four days after injection of the eggs with cRNA prepared from the BoPCaR 1 cDNA. Furthermore, the ranges of the concentrations of the two cations eliciting this response were very similar to those shown previously to act on bovine parathyroid cells in vitro.
Xenopus oocytes were injected with BoPCaR 1, the 5.3 Kb cDNA encoding a bovine parathyroid cell calcium receptor as described in Example 25. After two to three days, Cl^- currents were examined in the oocytes using a two-electrode voltage clamp.
Xenopus oocytes were injected with BoPCaR 1 as described in Example 25. After two to three days, Cl^- currents were examined in the oocytes using two electrode voltage clamp.

[2] = biological target: T2, parathyroid cell calcium receptor (Bos taurus, UniProt P35384); assay: cell-based; conditions: for relative potency, in words: parathyroid cells; for EC50: increases in intracellular calcium, fura-2 loaded cells; for effect on mobilization elicited by extracellular divalent cations / effect on [Ca2+]i at low extracellular Ca2+: 100 μM; for effect on [Ca2+]i at low extracellular Ca2+: 0.5 mM extracellular Ca2+
T2 sequence (P35384 20-1085): T1 sequence (P35384 20-1085)

[3] = test system: Ca2+ influx in parathyroid cells; assay: Ca2+ influx in bovine parathyroid cells; conditions: for effect on [Ca2+]i: 100 to 1000 μM, 2 mM CaCl2; for effect on extracellular Ca2+-elicited increases in [Ca2+]i: pretreatment

Compound: CNc1ccc2oc(C[C@H]3O[C@@]4(CC[C@H]3C)O[C@H]([C@H](C)C(=O)c3ccc[nH]3)[C@H](C)C[C@H]4C)nc2c1C(=O)O [Compound A23187]
effect on inward currents [1]: activated

relative potency, in words [2]: nearly as potent as the parent molecule
Compound: CC(NCCCc1ccccc1)c1ccccc1 (stereo not shown) [Compound 1D]

effect on basal or extracellular Ca2+-evoked [Ca2+]i ([2]; 1 μM): None of the dihydropyridines tested
Compound: COC(=O)C1=C(C)NC(C)=C([N+](=O)[O-])C1c1ccccc1C(F)(F)F (stereo not shown) [BAY K 8644]

Compound: NCCNCCNCCN [Triethylenetramine (TETA), triethylenetetramine]
effect on [Ca2+]i [2]: mobilize intracellular Ca^2+

Compound: O=C(O)CN(CCOCCOCCN(CC(=O)O)CC(=O)O)CC(=O)O [EGTA]
effect on inward currents [1]: prevents oocytes expressing the calcium receptor from responding

concentration eliciting responses ([1]; BoPCaR 1-injected oocytes, only at much higher concentrations): 100 µM
Compound: COc1cccc([C@H](C)NCCCc2ccccc2Cl)c1 [NPS S-568]

effect on basal or extracellular Ca2+-evoked [Ca2+]i ([2]; 1 μM): None of the dihydropyridines tested
Compound: CC1=C(C(=O)OC(C)C)[C@@H](c2cccc3nonc23)C([N+](=O)[O-])=C(C)N1 [(-) 202-791]

Compound: C[C@@H](NCc1ccc(C(C)(C)C)cc1)c1cccc2ccccc12 [Compound 15G]
EC50 ([2]; Table 8): ~0.5 µM

effect on [Ca2+]i [2]: mobilize intracellular Ca^2+
Compound: NCCNCCNCCNCCN [Tetraethylenepentamine (TEPA), Tetraethylenepentamine]

Compound: CC(N[C@H](C)c1ccccc1)c1ccc2ccccc2c1 (stereo partly shown) [Compound 4H]
EC50 ([2]; Table 8): ≥ 3 µM

effect on [Ca2+]i [2]: mobilize intracellular Ca^2+
Compound: NCCCN(CCCN)CCCN(CCCN)CCCCN(CCCN)CCCN(CCCN)CCCN [NPS 381, N^1,N^1,N^5,N^10,N^14,N^14-hexakis-(3-aminopropyl) spermine]

Compound: NC[C@H]1O[C@H](O[C@H]2[C@H](O)[C@@H](O[C@H]3O[C@H](CO)[C@@H](O)[C@H](N)[C@H]3O)[C@H](N)C[C@@H]2N)[C@H](O)[C@@H](O)[C@@H]1O [Kanamycin]
effect on [Ca2+]i ([2]; 500 μM): without effect

Compound: CC(NCCCc1ccccc1)C1CCCCC1 (stereo not shown) [Compound 20V]
EC50 ([2]; Table 7): > 100 µM

effect on basal or extracellular Ca2+-evoked [Ca2+]i ([2]; 1 μM): None of the dihydropyridines tested
Compound: CC1=C(C(=O)OC(C)C)[C@H](c2cccc3nonc23)C([N+](=O)[O-])=C(C)N1 [(+) 202-791]

effect on [Ca2+]i at low extracellular Ca2+ [2]: evoked no change
Compound: CCN(CC)CCCCCCCCOC(=O)c1cc(OC)c(OC)c(OC)c1 [TMB-8]
mode of action at the calcium receptor [2]: partial agonists or allosteric activators | effect on mobilization elicited by extracellular divalent cations [2]: potentiated the mobilization of intracellular Ca^2+; also recorded: potentiated transient increases in [Ca^2+ ]i | effect on influx of extracellular Ca2+ ([3]; 100 μM): blocked the influx of extracellular Ca^2+

effect on inward currents [1]: blocks the currents
Compound: O=C(O)c1c2ccccc2cc2ccccc12 [Compound 9AC]

Compound: N=C(N)NCCC[C@H](N)C(=O)NCCCNCCCNCCCCCNC(=O)[C@H](CC(N)=O)NC(=O)Cc1ccc(O)cc1O [Argiotoxin-636]
effect on response to extracellular Ca2+ [2]: did potentiate cytosolic Ca^2+ | effect on [Ca2+]i ([2]; 400 μM): did not elicit increases in [Ca^2+ ] | effect on [Ca2+]i ([2]; 100 to 300 μM): had no effect

effect on [Ca2+]i at low extracellular Ca2+ [2]: evoked no change
Compound: COc1ccc(CCN(C)CCCC(C#N)(c2cc(OC)c(OC)c(OC)c2)C(C)C)cc1OC [Compound D-600]
mode of action at the calcium receptor [2]: partial agonists or allosteric activators | effect on mobilization elicited by extracellular divalent cations [2]: potentiated the mobilization of intracellular Ca^2+ | effect on influx of extracellular Ca2+ ([3]; 100 μM): blocked the influx of extracellular Ca^2+

Compound: CC(N[C@H](C)c1ccccc1)c1cccc2ccccc12 (stereo partly shown) [Compound 4G]
EC50 ([2]; Table 8): 1.8 µM

relative potency, in words [2]: as potent as NPS 467
Compound: COc1cccc(C(C)NCCC(c2ccccc2)c2ccccc2)c1 (racemic) [meta-Methoxyfendiline]

Compound: COC(=O)C1=C(C)NC(C)=C(C(=O)OC)C1c1ccccc1[N+](=O)[O-] [nifedipine]
effect on basal or extracellular Ca2+-evoked [Ca2+]i [2]: None of the dihydropyridines tested

EC50 ([2]; Table 8): 0.38 µM
Compound: COc1cccc([C@@H](C)N[C@H](C)c2cccc3ccccc23)c1 [Compound 14Y]

Compound: COc1ccc(CC(=O)NCCCCCCCCCCCCN)cc1OC [NPS 384]
effect on [Ca2+]i ([2]; NPS 384 300 μM): did not evoke an increase in [Ca^2+ ]i; also recorded: fails to do so | effect on influx of extracellular Ca2+ ([3]; 300 μM): blocked influx of extracellular Ca^2+ | effect on [Ca2+]i [3]: causes a prompt fall in [Ca^2+ ]i | effect on extracellular Ca2+-elicited increases in [Ca2+]i [3]: depresses steady-state, but not transient increases in [Ca^2+ ]i

effect on [Ca2+]i ([2]; 500 μM): without effect
Compound: CCC[C@@H]1C[C@@H](C(=O)N[C@@H]([C@H]2O[C@H](SC)[C@H](O)[C@@H](O)[C@H]2O)[C@@H](C)O)N(C)C1 [lincomycin]

effect on basal or extracellular Ca2+-evoked [Ca2+]i ([2]; 1 μM): None of the dihydropyridines tested
Compound: CCOC(=O)C1=C(C)NC(C)=C(C(=O)OC)C1c1cccc([N+](=O)[O-])c1 (stereo not shown) [nitrendipine]

Compound: N=C(N)NCCC[C@H](N)C(=O)NCCCNCCCNCCCCCNC(=O)[C@H](CC(N)=O)NC(=O)Cc1c[nH]c2cccc(O)c12 [Argiotoxin-659]
effect on [Ca2+]i ([2]; 100 to 300 μM): evoked transient increases in [Ca^2+ ]i

EC50 ([2]; Table 8): 0.26 µM
Compound: CC(C)c1ccc([C@@H](C)N[C@H](C)c2cccc3ccccc23)cc1 [Compound 14L]

Compound: NCCCNCCCCNCCCNCCCN(O)CCCNC(=O)Cc1c[nH]c2ccccc12 [NPS 017]
effect on Cl- current ([1]; BoPCaR 1-injected oocytes): caused oscillatory increases in the Cl^- | effect in control oocytes ([1]; uninjected, water or rat liver mRNA oocytes): Neither NPS 017 nor NPS 019 elicited changes in Cl^-

Compound: CCCC(=O)N[C@@H](Cc1ccc(O)cc1)C(=O)NCCCCNCCCNCCCN [Philanthotoxin-433]
effect on [Ca2+]i ([2]; 500 μM): without effect

Compound: NCCCCCCCCCCCCN [1,12-diaminododecane (DADD), 1,12-diaminododecane]
effect on [Ca2+]i [3]: causes a prompt fall in [Ca^2+ ]i | effect on extracellular Ca2+-elicited increases in [Ca2+]i [3]: depresses steady-state, but not transient increases in [Ca^2+ ]i
